The results in this text go back to paper PMC9481570, “A small molecule antagonist of SMN disrupts the interaction between SMN and RNAP II” (Nature Communications, 2022).

Holding throughout (test): Affinity-purification and mass spectrometry (AP-MS) chemical proteomics, all proteins;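 for Difference: 200 µM free competitor with 20 µM biotin probe overnight in lysate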
What all share (type): binding

Test [1] concerns the target T1, proteins displaced from immobilized biotin-Cmpd 1 pulldowns (U2OS cell lysate) (Homo sapiens, UniProt O75223).
T1 construct: endogenous in cells; host or cells: U2OS
The conditions noted are these: GN=GGCT (O75223).

The target in test [2] is T2, proteins displaced from immobilized biotin-Cmpd 1 pulldowns (U2OS cell lysate) (Homo sapiens, UniProt P06748).
T2 construct: endogenous in cells; host or cells: U2OS
T2 sequence (P06748 whole entry): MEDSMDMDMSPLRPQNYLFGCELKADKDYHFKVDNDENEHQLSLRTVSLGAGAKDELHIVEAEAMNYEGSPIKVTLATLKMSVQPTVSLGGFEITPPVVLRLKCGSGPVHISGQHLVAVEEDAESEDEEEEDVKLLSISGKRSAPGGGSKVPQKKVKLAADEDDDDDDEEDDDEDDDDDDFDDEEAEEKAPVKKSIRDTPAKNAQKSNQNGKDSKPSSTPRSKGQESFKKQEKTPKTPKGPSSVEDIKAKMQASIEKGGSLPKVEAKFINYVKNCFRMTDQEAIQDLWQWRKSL
To be noted: GN=NPM1 (P06748).

Test [3] addresses T3, proteins displaced from immobilized biotin-Cmpd 1 pulldowns (U2OS cell lysate) (Homo sapiens, UniProt P20700).
T3 construct: endogenous in cells; host or cells: U2OS
The conditions noted are these: GN=LMNB1 (P20700).

In test [4] the target is T4, proteins displaced from immobilized biotin-Cmpd 1 pulldowns (U2OS cell lysate) (Homo sapiens, UniProt P38646).
T4 construct: endogenous in cells; host or cells: U2OS
T4 sequence (P38646 47-679): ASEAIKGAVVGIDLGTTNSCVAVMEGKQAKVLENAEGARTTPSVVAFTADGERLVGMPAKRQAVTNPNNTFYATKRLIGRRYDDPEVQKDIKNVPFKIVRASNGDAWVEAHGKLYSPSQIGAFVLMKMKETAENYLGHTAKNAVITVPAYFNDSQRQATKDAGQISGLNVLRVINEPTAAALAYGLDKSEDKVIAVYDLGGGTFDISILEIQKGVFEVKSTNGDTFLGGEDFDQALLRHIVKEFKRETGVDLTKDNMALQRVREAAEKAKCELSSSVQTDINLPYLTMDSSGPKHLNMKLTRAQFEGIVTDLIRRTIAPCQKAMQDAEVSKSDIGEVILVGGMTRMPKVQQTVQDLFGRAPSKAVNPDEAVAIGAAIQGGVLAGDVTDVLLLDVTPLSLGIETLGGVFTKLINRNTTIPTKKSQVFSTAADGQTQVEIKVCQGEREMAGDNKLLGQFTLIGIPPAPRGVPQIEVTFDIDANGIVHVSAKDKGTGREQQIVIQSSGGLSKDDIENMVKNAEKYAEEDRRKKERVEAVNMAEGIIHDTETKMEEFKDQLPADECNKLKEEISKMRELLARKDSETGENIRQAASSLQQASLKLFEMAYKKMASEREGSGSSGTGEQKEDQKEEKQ
The conditions noted are these: GN=HSPA9 (P38646).

In test [5] the target is T5, proteins displaced from immobilized biotin-Cmpd 1 pulldowns (U2OS cell lysate) (Homo sapiens, UniProt P47756).
T5 construct: endogenous in cells; host or cells: U2OS
T5 sequence (P47756 whole entry): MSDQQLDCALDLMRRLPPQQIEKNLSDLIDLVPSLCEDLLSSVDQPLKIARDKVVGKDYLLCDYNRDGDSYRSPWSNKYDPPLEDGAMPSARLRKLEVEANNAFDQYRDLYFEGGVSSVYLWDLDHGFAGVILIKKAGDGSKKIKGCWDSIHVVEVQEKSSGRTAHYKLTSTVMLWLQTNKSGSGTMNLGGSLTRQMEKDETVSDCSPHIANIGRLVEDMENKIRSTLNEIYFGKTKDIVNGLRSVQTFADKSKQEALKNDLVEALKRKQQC
The conditions noted are these: GN=CAPZB (P47756).

Test [6] deals with T6, proteins displaced from immobilized biotin-Cmpd 1 pulldowns (U2OS cell lysate) (Homo sapiens, UniProt P55072).
T6 construct: endogenous in cells; host or cells: U2OS
T6 sequence (P55072 whole entry): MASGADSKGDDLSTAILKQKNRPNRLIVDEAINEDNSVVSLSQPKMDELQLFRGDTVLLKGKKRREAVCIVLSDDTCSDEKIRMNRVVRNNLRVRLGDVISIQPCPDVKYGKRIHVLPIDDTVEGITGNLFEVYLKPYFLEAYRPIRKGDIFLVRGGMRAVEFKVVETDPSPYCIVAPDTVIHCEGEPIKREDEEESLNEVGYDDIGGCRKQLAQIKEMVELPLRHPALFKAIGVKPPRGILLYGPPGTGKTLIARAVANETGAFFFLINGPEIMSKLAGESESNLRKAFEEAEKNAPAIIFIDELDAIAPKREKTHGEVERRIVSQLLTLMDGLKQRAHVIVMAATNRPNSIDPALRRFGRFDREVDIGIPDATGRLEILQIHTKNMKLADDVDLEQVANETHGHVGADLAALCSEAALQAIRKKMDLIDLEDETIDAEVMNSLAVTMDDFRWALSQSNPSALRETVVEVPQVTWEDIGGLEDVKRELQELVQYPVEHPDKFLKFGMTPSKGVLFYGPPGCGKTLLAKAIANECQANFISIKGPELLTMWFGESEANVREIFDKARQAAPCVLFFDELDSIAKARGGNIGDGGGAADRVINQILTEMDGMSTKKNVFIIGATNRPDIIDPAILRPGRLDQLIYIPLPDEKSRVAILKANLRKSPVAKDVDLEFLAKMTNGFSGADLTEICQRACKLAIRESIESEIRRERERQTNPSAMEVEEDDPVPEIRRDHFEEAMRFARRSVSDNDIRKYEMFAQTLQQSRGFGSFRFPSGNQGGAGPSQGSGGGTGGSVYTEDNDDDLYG
To be noted: GN=VCP (P55072).

In test [7] the target is T7, proteins displaced from immobilized biotin-Cmpd 1 pulldowns (U2OS cell lysate) (Homo sapiens, UniProt Q15050).
T7 construct: endogenous in cells; host or cells: U2OS
T7 sequence (Q15050 whole entry): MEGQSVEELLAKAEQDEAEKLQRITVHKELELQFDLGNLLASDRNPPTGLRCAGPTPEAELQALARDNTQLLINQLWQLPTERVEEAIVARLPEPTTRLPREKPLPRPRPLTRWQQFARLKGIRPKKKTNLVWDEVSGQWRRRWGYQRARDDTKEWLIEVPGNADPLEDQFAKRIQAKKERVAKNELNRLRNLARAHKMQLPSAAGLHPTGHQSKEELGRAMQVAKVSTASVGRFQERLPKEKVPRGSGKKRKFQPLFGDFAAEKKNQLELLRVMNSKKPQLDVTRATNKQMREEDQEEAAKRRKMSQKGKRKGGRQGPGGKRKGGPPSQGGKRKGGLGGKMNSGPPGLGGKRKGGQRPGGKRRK
The conditions noted are these: GN=RRS1 (Q15050).

Test [8] has as its target T8, proteins displaced from immobilized biotin-Cmpd 1 pulldowns (U2OS cell lysate) (Homo sapiens, UniProt Q9NZT1).
T8 construct: endogenous in cells; host or cells: U2OS
The conditions noted are these: GN=CALML5 (Q9NZT1).

The subject of test [9] is proteins displaced from immobilized biotin-Cmpd 1 pulldowns (U2OS cell lysate). The conditions noted are these: Cmpd minus DMSO.

Structures are written as SMILES. Where “and” joins values, the source holds several entries; their conditions need not be identical. Equal entries are not always repeated.

T1 sequence (O75223 whole entry): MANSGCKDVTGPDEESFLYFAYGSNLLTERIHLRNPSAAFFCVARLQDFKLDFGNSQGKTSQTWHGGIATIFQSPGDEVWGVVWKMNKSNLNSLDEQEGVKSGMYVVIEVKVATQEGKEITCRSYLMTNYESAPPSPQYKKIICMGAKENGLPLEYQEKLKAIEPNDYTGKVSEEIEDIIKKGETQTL
T8 sequence (Q9NZT1 whole entry): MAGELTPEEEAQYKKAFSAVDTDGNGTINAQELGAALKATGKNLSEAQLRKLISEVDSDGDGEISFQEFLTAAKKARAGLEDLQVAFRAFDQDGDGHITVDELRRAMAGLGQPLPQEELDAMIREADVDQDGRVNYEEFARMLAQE
T3 sequence (P20700 whole entry): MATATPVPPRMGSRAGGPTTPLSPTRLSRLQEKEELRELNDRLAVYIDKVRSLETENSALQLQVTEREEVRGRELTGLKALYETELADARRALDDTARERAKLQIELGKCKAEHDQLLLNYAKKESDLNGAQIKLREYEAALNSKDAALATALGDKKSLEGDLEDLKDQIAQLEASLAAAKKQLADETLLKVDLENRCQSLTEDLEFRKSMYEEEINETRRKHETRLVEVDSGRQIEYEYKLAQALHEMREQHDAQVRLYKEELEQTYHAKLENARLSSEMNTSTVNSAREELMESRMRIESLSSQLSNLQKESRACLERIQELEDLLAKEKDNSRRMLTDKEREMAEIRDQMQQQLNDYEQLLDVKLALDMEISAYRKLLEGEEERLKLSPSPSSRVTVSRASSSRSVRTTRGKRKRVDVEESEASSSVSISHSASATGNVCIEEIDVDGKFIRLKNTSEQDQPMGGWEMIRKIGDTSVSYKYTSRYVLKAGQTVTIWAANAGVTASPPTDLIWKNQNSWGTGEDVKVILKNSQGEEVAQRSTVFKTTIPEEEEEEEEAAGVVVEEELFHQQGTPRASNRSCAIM

With `Cn1c2c(c(=N)c3c1CCC3)CCC2` [Compound 1, 4-methyl-2,3,4,5,6,7-hexahydrodicyclopenta[b,e]pyridin-8(1H)-imine], the Difference in test [1] (Cmpd minus DMSO, -LOG(P-value) 0.708043) is -1.888; in [2] (Cmpd minus DMSO, -LOG(P-value) 0.76043), -0.4033; in [3] (Cmpd minus DMSO, -LOG(P-value) 0.765149), 0.6571; in test [4] (Cmpd minus DMSO, -LOG(P-value) 0.718324), 0.7463; in [5] (Cmpd minus DMSO, -LOG(P-value) 1.09295), -1.787; in test [6] (Cmpd minus DMSO, -LOG(P-value) 1.20929), 2.227. Besides, the Difference in [7] (Cmpd minus DMSO, -LOG(P-value) 0.720694) is reported as 2.281; in test [8] (Cmpd minus DMSO, -LOG(P-value) 2.02756) it was -2.389; in test [9] (GN=ACTA1/ACTC1 (P68133;P68032;P63267;P62736), -LOG(P-value) 1.19415), -2.469; in [9] (GN=FXR1 (P51114;P51116 FXR2), -LOG(P-value) 0.714644), 1.56; in [9] (GN=MYL1/MYL3 (P05976;P08590), -LOG(P-value) 0.754366), -4.118; in [9] (GN=RGPD4/RGPD3 (Q7Z3J3;A6NKT7;P49792), -LOG(P-value) 1.07048) it was -0.9439. Moreover, in test [9] (GN=TUBB2A/TUBB2B (Q13885;Q9BVA1), -LOG(P-value) 2.56756), the Difference is reported as 3.9801. Moreover, the “iBAQ Cmpd” value in [1] (replicates 1-3) was 19.1406 and 20.1765 and 18.5823; in test [2] (replicates 1-3), 27.3171 and 27.18 and 26.7127; in [3] (replicates 1-3), 20.5307 and 20.0559 and 19.5746; in test [4] (replicates 1-3) it was 19.8777 and 19.6433 and 19.5335; in test [5] (replicates 1-3), 15.5737 and 16.3289 and 18.0803; in test [6] (replicates 1-3), 18.6461 and 18.1931 and 16.8577. Further, the “iBAQ Cmpd” value was 15.4548 and 18.445 and 19.3119 in test [7] (replicates 1-3); 18.8431 and 20.0939 and 20.182 in [8] (replicates 1-3).
